PubChem BioAssay (NCI)
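Assay format: 96-well plates, 48-hour exposure. Here, GI50 denotes the concentration required for 50% inhibition of growth. The concentration for full growth arrest is given as TGI.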

Assays:
Assay in all cases: growth of human tumour cells (NCI), 48 h
CCRF-CEM leukemia = system: CCRF-CEM leukemia
RXF 393 renal = system: RXF 393 renal
UACC-257 melanoma = system: UACC-257 melanoma
HCC-2998 colon = system: HCC-2998 colon
UACC-62 melanoma = system: UACC-62 melanoma
SK-MEL-5 melanoma = system: SK-MEL-5 melanoma
DU-145 prostate = system: DU-145 prostate
SF-268 CNS = system: SF-268 CNS
K-562 leukemia = system: K-562 leukemia
SNB-19 CNS = system: SNB-19 CNS
HL-60(TB) leukemia = system: HL-60(TB) leukemia
SNB-75 CNS = system: SNB-75 CNS
SK-MEL-28 melanoma = system: SK-MEL-28 melanoma
786-0 renal = system: 786-0 renal
OVCAR-4 ovarian = system: OVCAR-4 ovarian
SF-539 CNS = system: SF-539 CNS
T-47D breast = system: T-47D breast
CAKI-1 renal = system: CAKI-1 renal
NCI-H226 lung = system: NCI-H226 lung
A549 NSCLC = system: A549 NSCLC
OVCAR-5 ovarian = system: OVCAR-5 ovarian
M14 melanoma = system: M14 melanoma
SK-MEL-2 melanoma = system: SK-MEL-2 melanoma
NCI/ADR-RES ovarian = system: NCI/ADR-RES ovarian
U251 CNS = system: U251 CNS
SF-295 CNS = system: SF-295 CNS
MCF7 breast = system: MCF7 breast
HCT-116 colon = system: HCT-116 colon
A498 renal = system: A498 renal
BT-549 breast = system: BT-549 breast
SW-620 colon = system: SW-620 colon
HT29 colon = system: HT29 colon
COLO 205 colon = system: COLO 205 colon
OVCAR-8 ovarian = system: OVCAR-8 ovarian
LOX IMVI melanoma = system: LOX IMVI melanoma
NCI-H23 lung = system: NCI-H23 lung
ACHN renal = system: ACHN renal
RPMI-8226 leukemia = system: RPMI-8226 leukemia
MALME-3M melanoma = system: MALME-3M melanoma
EKVX NSCLC = system: EKVX NSCLC
HOP-62 NSCLC = system: HOP-62 NSCLC
HS 578T breast = system: HS 578T breast
NCI-H522 lung = system: NCI-H522 lung
MDA-MB-435 = system: MDA-MB-435
TK-10 renal = system: TK-10 renal
SK-OV-3 ovarian = system: SK-OV-3 ovarian
IGROV1 ovarian = system: IGROV1 ovarian
MDA-MB-231 breast = system: MDA-MB-231 breast
HOP-92 NSCLC = system: HOP-92 NSCLC
PC-3 prostate = system: PC-3 prostate
KM12 colon = system: KM12 colon
SN12C renal = system: SN12C renal
NCI-H460 lung = system: NCI-H460 lung
MOLT-4 leukemia = system: MOLT-4 leukemia
UO-31 renal = system: UO-31 renal
SR leukemia = system: SR leukemia

For FC(F)(F)c1cc(Br)cc(-c2cc(-c3ccc4c(c3)OCCO4)[nH]n2)c1, the GI50 (CCRF-CEM leukemia) was 87.5 nM, the TGI (CCRF-CEM leukemia) was > 39500 nM and the GI50 (RXF 393 renal) was 47.8 nM. The TGI (RXF 393 renal) was 450 nM, the GI50 (UACC-257 melanoma) was 2710 nM and the TGI (UACC-257 melanoma) was > 100000 nM. The GI50 (HCC-2998 colon) was 290 nM, the TGI (HCC-2998 colon) was > 100000 nM and the GI50 (UACC-62 melanoma) was 39 nM. The TGI (UACC-62 melanoma) was > 100000 nM, the GI50 (SK-MEL-5 melanoma) was 84.1 nM and the TGI (SK-MEL-5 melanoma) was 2540 nM. For the same molecule, the GI50 (DU-145 prostate) was 284 nM, the TGI (DU-145 prostate) was > 100000 nM and the GI50 (SF-268 CNS) was 753 nM. For the same molecule, the TGI (SF-268 CNS) was > 100000 nM, the GI50 (K-562 leukemia) was 37.3 nM and the TGI (K-562 leukemia) was > 100000 nM. For the same molecule, the GI50 (SNB-19 CNS) was 108 nM, the TGI (SNB-19 CNS) was > 100000 nM and the GI50 (HL-60(TB) leukemia) was 33.6 nM. It also gave a GI50 (SNB-75 CNS) of 120 nM, a TGI (SNB-75 CNS) of 925 nM and a GI50 (SK-MEL-28 melanoma) of 2680 nM. The TGI (SK-MEL-28 melanoma) was > 100000 nM, the GI50 (786-0 renal) was 56.5 nM and the TGI (786-0 renal) was 3780 nM. The TGI (OVCAR-4 ovarian) was > 100000 nM, the GI50 (SF-539 CNS) was 65.1 nM and the TGI (SF-539 CNS) was 757 nM. The GI50 (T-47D breast) was 683 nM, the TGI (T-47D breast) was > 100000 nM and the GI50 (CAKI-1 renal) was 79.3 nM. The TGI (CAKI-1 renal) was > 100000 nM, the GI50 (NCI-H226 lung) was 214 nM and the TGI (NCI-H226 lung) was > 100000 nM. For the same molecule, the GI50 (A549 NSCLC) was 146 nM, the TGI (A549 NSCLC) was > 38100 nM and the GI50 (OVCAR-5 ovarian) was 348 nM. For the same molecule, the TGI (OVCAR-5 ovarian) was > 100000 nM, the GI50 (M14 melanoma) was 76.5 nM and the TGI (M14 melanoma) was > 38600 nM. The GI50 (SK-MEL-2 melanoma) was 162 nM, the TGI (SK-MEL-2 melanoma) was > 100000 nM and the GI50 (NCI/ADR-RES ovarian) was 51.7 nM. For the same molecule, the TGI (NCI/ADR-RES ovarian) was > 100000 nM, the GI50 (U251 CNS) was 78.5 nM and the TGI (U251 CNS) was 4860 nM. The GI50 (SF-295 CNS) was 31.8 nM, the GI50 (MCF7 breast) was 59 nM and the TGI (MCF7 breast) was > 100000 nM. For the same molecule, the GI50 (HCT-116 colon) was 42.4 nM, the TGI (HCT-116 colon) was 1620 nM and the GI50 (A498 renal) was 36.3 nM. The TGI (A498 renal) was 283 nM, the GI50 (BT-549 breast) was 56.7 nM and the TGI (BT-549 breast) was 2220 nM. The GI50 (SW-620 colon) was 54 nM, the TGI (SW-620 colon) was > 100000 nM and the GI50 (HT29 colon) was 42.6 nM. For the same molecule, the TGI (HT29 colon) was 533 nM, the GI50 (COLO 205 colon) was 109 nM and the TGI (COLO 205 colon) was 283 nM. The GI50 (OVCAR-8 ovarian) was 213 nM, the TGI (OVCAR-8 ovarian) was 1470 nM and the GI50 (LOX IMVI melanoma) was 29.6 nM. The TGI (LOX IMVI melanoma) was > 100000 nM, the GI50 (NCI-H23 lung) was 376 nM and the TGI (NCI-H23 lung) was > 100000 nM. For the same molecule, the GI50 (ACHN renal) was 75.2 nM, the TGI (ACHN renal) was > 100000 nM and the GI50 (RPMI-8226 leukemia) was 306 nM. The TGI (RPMI-8226 leukemia) was > 22900 nM, the GI50 (MALME-3M melanoma) was 1600 nM and the TGI (MALME-3M melanoma) was > 100000 nM. For the same molecule, the GI50 (EKVX NSCLC) was 645 nM, the TGI (EKVX NSCLC) was > 100000 nM and the GI50 (HOP-62 NSCLC) was 226 nM. The TGI (HOP-62 NSCLC) was > 100000 nM, the GI50 (HS 578T breast) was 259 nM and the TGI (HS 578T breast) was > 100000 nM. The GI50 (NCI-H522 lung) was 23.6 nM, the TGI (NCI-H522 lung) was 69.4 nM and the GI50 (MDA-MB-435) was 26.4 nM. For the same molecule, the TGI (MDA-MB-435) was 773 nM, the GI50 (TK-10 renal) was 12300 nM and the TGI (TK-10 renal) was 63400 nM. The GI50 (SK-OV-3 ovarian) was 124 nM, the TGI (SK-OV-3 ovarian) was > 56600 nM and the GI50 (IGROV1 ovarian) was 153 nM. The TGI (IGROV1 ovarian) was > 100000 nM, the GI50 (MDA-MB-231 breast) was 78.5 nM and the TGI (MDA-MB-231 breast) was > 100000 nM. It also gave a GI50 (HOP-92 NSCLC) of 1150 nM, a TGI (HOP-92 NSCLC) of 5510 nM and a GI50 (PC-3 prostate) of 70.5 nM. For the same molecule, the TGI (PC-3 prostate) was > 38500 nM, the GI50 (KM12 colon) was 59.6 nM and the TGI (KM12 colon) was > 52100 nM. The GI50 (SN12C renal) was 144 nM, the TGI (SN12C renal) was 4400 nM and the GI50 (NCI-H460 lung) was 60.5 nM. The TGI (NCI-H460 lung) was 13900 nM, the GI50 (MOLT-4 leukemia) was 196 nM and the TGI (MOLT-4 leukemia) was > 100000 nM. For the same molecule, the GI50 (UO-31 renal) was 201 nM, the TGI (UO-31 renal) was > 100000 nM and the GI50 (SR leukemia) was 36.4 nM. For the same molecule, the TGI (SR leukemia) was > 100000 nM.
